Test results: ChEMBL document CHEMBL5724914, “Linking interpersonal differences in gut microbiota composition and drug biotransformation activity” (2024)

Legend:
[1] = The drug is tested on Z-024 corresponding to pig gut metagenome with ENA study accession number: PRJEB37062 and ENA sample accession number: ERS12561823 for biotransformation under anaerobic condition. The drug concentrations were measured over 9 timepoints collected between 0 and 24 hours of incubation by liquid-chromatography-coupled mass spectrometry (LC–MS); details: 2 µM
[2] = The drug is tested on Z-012 corresponding to metagenome with ENA study accession number: PRJEB37062 and ENA sample accession number: ERS12561812 for biotransformation under anaerobic condition. The drug concentrations were measured over 9 timepoints collected between 0 and 24 hours of incubation by liquid-chromatography-coupled mass spectrometry (LC–MS); details: 2 µM
[3] = The drug is tested on Z-006 corresponding to mouse gut metagenome with ENA study accession number: PRJEB37062 and ENA sample accession number: ERS12561806 for biotransformation under anaerobic condition. The drug concentrations were measured over 9 timepoints collected between 0 and 24 hours of incubation by liquid-chromatography-coupled mass spectrometry (LC–MS); details: 2 µM
[4] = The drug is tested on Z-002 corresponding to rabbit gut metagenome with ENA study accession number: PRJEB37062 and ENA sample accession number: ERS12561802 for biotransformation under anaerobic condition. The drug concentrations were measured over 9 timepoints collected between 0 and 24 hours of incubation by liquid-chromatography-coupled mass spectrometry (LC–MS); details: 2 µM
[5] = The drug is tested on WLS-170 corresponding to human gut metagenome with ENA study accession number: PRJEB37062 and ENA sample accession number: ERS12561762 for biotransformation under anaerobic condition. The drug concentrations were measured over 9 timepoints collected between 0 and 24 hours of incubation by liquid-chromatography-coupled mass spectrometry (LC–MS); details: 2 µM
[6] = human gut metagenome, 24 h, 2 µM
[7] = human gut metagenome, 24 h, 2 µM; remark: listed apart in the source
[8] = human gut metagenome, 24 h, 2 µM; remark: listed apart in the source
[9] = human gut metagenome, 24 h, 2 µM; remark: listed apart in the source
Further: call rule not given here.

SMILES	Bacterial Biotransformation [1]	Bacterial Biotransformation [2]	Bacterial Biotransformation [3]	Bacterial Biotransformation [4]	Bacterial Biotransformation [5]	Bacterial Biotransformation [6]	Bacterial Biotransformation [7]	Bacterial Biotransformation [8]	Bacterial Biotransformation [9]
CC1Cc2ccccc2N1NC(=O)c1ccc(Cl)c(S(N)(=O)=O)c1 (stereo not given) [INDAPAMIDE]	Compound NOT metabolized	Compound NOT metabolized	Compound NOT metabolized	Compound NOT metabolized	Compound NOT metabolized	Compound NOT metabolized	Compound NOT metabolized	Compound NOT metabolized	Compound NOT metabolized
COc1ccc2c(c1)c(CC(=O)O)c(C)n2C(=O)c1ccc(Cl)cc1 [INDOMETHACIN]	Compound NOT metabolized	Compound NOT metabolized	Compound NOT metabolized	Compound NOT metabolized	Compound metabolized	Compound metabolized	Compound metabolized	Compound metabolized	Compound metabolized
CC(CCc1ccccc1)NCC(O)c1ccc(O)c(C(N)=O)c1 (stereo not given) [LABETALOL]	Compound metabolized	Compound NOT metabolized	Compound NOT metabolized	Compound NOT metabolized	Compound NOT metabolized	Compound NOT metabolized	Compound metabolized	Compound NOT metabolized	Compound NOT metabolized
Nc1nnc(-c2cccc(Cl)c2Cl)c(N)n1 [LAMOTRIGINE]	Compound NOT metabolized	Compound NOT metabolized	Compound NOT metabolized	Compound NOT metabolized	Compound metabolized	Compound NOT metabolized	Compound NOT metabolized	Compound NOT metabolized	Compound NOT metabolized
OC(c1cc(C(F)(F)F)nc2c(C(F)(F)F)cccc12)C1CCCCN1 (stereo not given) [MEFLOQUINE]	Compound metabolized	Compound NOT metabolized	Compound NOT metabolized	Compound metabolized	Compound metabolized	Compound NOT metabolized	Compound metabolized	Compound NOT metabolized	Compound NOT metabolized
CC(=O)O[C@]1(C(C)=O)CC[C@H]2[C@@H]3C=C(C)C4=CC(=O)CC[C@]4(C)[C@H]3CC[C@@]21C [MEGESTROL ACETATE]	Compound NOT metabolized	Compound metabolized	Compound metabolized	Compound metabolized	Compound metabolized	Compound metabolized	Compound metabolized	Compound metabolized	Compound metabolized
CC12CC3CC(C)(C1)CC(N)(C3)C2 [MEMANTINE]	Compound NOT metabolized	Compound NOT metabolized	Compound NOT metabolized	Compound NOT metabolized	Compound metabolized	Compound NOT metabolized	Compound NOT metabolized	Compound NOT metabolized	Compound NOT metabolized
Cc1cc(C)cc(OCC2CNC(=O)O2)c1 (stereo not given) [METAXALONE]	Compound NOT metabolized	Compound NOT metabolized	Compound NOT metabolized	Compound NOT metabolized	Compound metabolized	Compound metabolized	Compound NOT metabolized	Compound metabolized	Compound metabolized
COC(=O)C(c1ccccc1)C1CCCCN1 (stereo not given) [METHYLPHENIDATE]	Compound metabolized	Compound NOT metabolized	Compound NOT metabolized	Compound metabolized	Compound metabolized	Compound NOT metabolized	Compound NOT metabolized	Compound NOT metabolized	Compound NOT metabolized
CN1CCN2c3ccccc3Cc3ccccc3C2C1 (stereo not given) [MIANSERIN]	Compound metabolized	Compound NOT metabolized	Compound NOT metabolized	Compound metabolized	Compound metabolized	Compound NOT metabolized	Compound NOT metabolized	Compound NOT metabolized	Compound NOT metabolized
CC#C[C@]1(O)CC[C@H]2[C@@H]3CCC4=CC(=O)CCC4=C3[C@@H](c3ccc(N(C)C)cc3)C[C@@]21C [MIFEPRISTONE]	Compound metabolized	Compound NOT metabolized	Compound metabolized	Compound metabolized	Compound metabolized	Compound NOT metabolized	Compound metabolized	Compound metabolized	Compound NOT metabolized
CC(C)(C)NCC(O)COc1cccc2c1CC(O)C(O)C2 (stereo not given) [NADOLOL]	Compound NOT metabolized	Compound NOT metabolized	Compound NOT metabolized	Compound metabolized	Compound metabolized	Compound NOT metabolized	Compound metabolized	Compound NOT metabolized	Compound NOT metabolized
CC(C)[C@H]1CC[C@H](C(=O)N[C@H](Cc2ccccc2)C(=O)O)CC1 [NATEGLINIDE]	Compound metabolized	Compound NOT metabolized	Compound NOT metabolized	Compound metabolized	Compound metabolized	Compound metabolized	Compound metabolized	Compound metabolized	Compound metabolized
CN(C)C(=O)Oc1cccc([N+](C)(C)C)c1.[Br-] [NEOSTIGMINE BROMIDE]	Compound NOT metabolized	Compound NOT metabolized	Compound NOT metabolized	Compound metabolized	Compound NOT metabolized	Compound NOT metabolized	Compound NOT metabolized	Compound NOT metabolized	Compound NOT metabolized
Cc1ccccc1C(OCCN(C)C)c1ccccc1.O=C(O)CC(O)(CC(=O)O)C(=O)O (stereo not given) [ORPHENADRINE CITRATE]	Compound metabolized	Compound NOT metabolized	Compound NOT metabolized	Compound metabolized	Compound metabolized	Compound NOT metabolized	Compound NOT metabolized	Compound NOT metabolized	Compound NOT metabolized
